Assay results taken from patent publication US12715848B2, “Process for the diastereomerically pure preparation of DL/LD-methionylmethionine” (Evonik Operations GmbH, priority 2020, dated 2026).
In brackets after ≈: the same amount, converted by molar mass. Residues, ends and D or L forms follow the SMILES beside them.

Columns and labels:
[1] = Minimum ignition energy; format: physicochemical
[2] = Determination of bulk density (1 L measuring cylinder); format: physicochemical
Method: The bulk density in kg/L was determined using a 1 L measuring cylinder, which was filled with the bulk material precisely to the 1000 ml mark, and was measured by weighing the weight of the contents so as to result in the bulk density directly.

[3] = Dust content; format: physicochemical; settings: fraction <63 μm
[4] = Water solubility at room temperature

| Structure (SMILES) | minimum ignition energy ([1]; 100° C.) | minimum ignition energy ([1]; room temperature) | bulk density [2] | dust content [3] | water solubility [4] |
| --- | --- | --- | --- | --- | --- |
| CSCCC(N)C(=O)NC(CCSC)C(=O)O (stereo not drawn) [DLLD-Met-Met, DL/LD-methionylmethionine] (H-Met-Met-OH; configuration not given here) | above 3 mJ | above 10 mJ | > 600 kg/m^3 | approx. 10% |  |
| CSCCC(N)C(=O)NC(CCSC)C(=O)O (stereo not drawn) [DDLL-Met-Met, DD/LL-methionylmethionine] (H-Met-Met-OH; configuration not given here) |  |  |  |  | 21.0 mg/mL (≈ 74.9 mM) |
